Measured values from ChEMBL document CHEMBL1201862, “PubChem BioAssay data set” (2004).
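A five-concentration, 48-hour dose response in 96-well plates underlies each endpoint, interpolated linearly between surrounding concentrations. At the GI50, growth is halved.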 Activity calls are given as the source filed them. Rule as the data show it: active = GI50 up to about 1.1 µM and inactive = higher.

Key:
Experiment in all cases: inhibition of tumour cell growth, NCI panel, 48 h
ACHN = system: ACHN
OVCAR-3 = system: OVCAR-3
SNB-19 = system: SNB-19
OVCAR-5 = system: OVCAR-5
786-0 = system: 786-0
OVCAR-4 = system: OVCAR-4
KM12 = system: KM12
NCI-H460 = system: NCI-H460
SF-295 = system: SF-295
SK-OV-3 = system: SK-OV-3
HT-29 = system: HT-29
HOP-62 = system: HOP-62
K562 = system: K562
SK-MEL-2 = system: SK-MEL-2
SK-MEL-28 = system: SK-MEL-28
NCI/ADR-RES = system: NCI/ADR-RES
MDA-N = system: MDA-N
MCF7 = system: MCF7
MDA-MB-435 = system: MDA-MB-435

Measured: GI50

O=C(O)CCC(NC(=O)c1ccc(Nc2nc3ccccc3nc2-c2cccs2)cc1)C(=O)O (stereo unspecified)
inactive: ACHN > 100 µM | OVCAR-3 > 100 µM | SNB-19 > 100 µM | OVCAR-5 > 100 µM | 786-0 > 100 µM | OVCAR-4 > 100 µM | KM12 > 100 µM | NCI-H460 > 100 µM | SF-295 > 100 µM | SK-OV-3 > 100 µM | HT-29 > 100 µM | HOP-62 > 100 µM | K562 > 100 µM | SK-MEL-2 > 100 µM | SK-MEL-28 > 100 µM

CCc1ccc(Cc2ccc(CC)c(NC(=O)C(=O)C3NC(=S)NC3=O)c2CC)c(CC)c1NC(=O)C(=O)C1NC(=S)NC1=O (stereo unspecified)
inactive: ACHN > 100 µM | OVCAR-3 > 100 µM | SNB-19 > 100 µM | OVCAR-5 > 100 µM | 786-0 > 100 µM | OVCAR-4 > 100 µM | KM12 > 100 µM | NCI-H460 > 100 µM | SK-OV-3 > 100 µM | HOP-62 > 100 µM | K562 > 100 µM | SK-MEL-2 > 100 µM | SK-MEL-28 > 100 µM

O=S(=O)(c1ccccc1)N1N=C2c3ccccc3CCC[C@H]2C1c1ccccc1 (stereo partly specified)
inactive: ACHN > 100 µM | OVCAR-3 > 100 µM | SNB-19 > 100 µM | OVCAR-5 > 100 µM | 786-0 > 100 µM | OVCAR-4 > 100 µM | KM12 > 92.3 µM | NCI-H460 98.6 µM | SF-295 > 100 µM | SK-OV-3 34.2 µM | HT-29 > 100 µM | HOP-62 > 100 µM | K562 > 100 µM | SK-MEL-2 > 100 µM | SK-MEL-28 > 100 µM

CCc1ccccc1NC(=O)CCc1nnc(S)[nH]1
inactive: ACHN > 100 µM | OVCAR-3 > 100 µM | SNB-19 > 100 µM | OVCAR-5 > 100 µM | 786-0 > 100 µM | OVCAR-4 > 100 µM | KM12 > 100 µM | NCI-H460 > 100 µM | SF-295 > 100 µM | SK-OV-3 > 100 µM | HT-29 > 100 µM | HOP-62 > 100 µM | K562 > 100 µM | SK-MEL-2 > 100 µM | SK-MEL-28 > 100 µM

CC1=C(C#N)C(=O)CC(c2ccc(Cl)cc2)N(C)N1 (stereo unspecified)
inactive: ACHN > 100 µM | SNB-19 > 100 µM | OVCAR-5 > 100 µM | 786-0 > 100 µM | OVCAR-4 > 100 µM | KM12 > 100 µM | NCI-H460 > 100 µM | SF-295 > 100 µM | SK-OV-3 > 100 µM | HT-29 > 100 µM | HOP-62 > 100 µM | SK-MEL-2 > 100 µM | SK-MEL-28 > 100 µM

O=C(O)CNS(=O)(=O)c1ccc(NC(=O)c2ccccc2[N+](=O)[O-])cc1
inactive: ACHN > 100 µM | SNB-19 > 100 µM | OVCAR-5 > 100 µM | 786-0 > 100 µM | OVCAR-4 > 100 µM | NCI-H460 > 100 µM | SK-OV-3 > 100 µM | HT-29 > 100 µM | K562 > 100 µM | SK-MEL-2 > 100 µM | SK-MEL-28 > 100 µM

O=c1[nH]c(=O)c2c3n(cc2[nH]1)CCCCC3
inactive: ACHN > 100 µM | SNB-19 > 100 µM | OVCAR-5 > 100 µM | 786-0 > 100 µM | NCI/ADR-RES > 100 µM | OVCAR-4 > 100 µM | MDA-N > 100 µM | KM12 > 100 µM | NCI-H460 > 100 µM | SF-295 > 100 µM | SK-OV-3 > 100 µM | HT-29 > 100 µM | HOP-62 > 100 µM | K562 > 100 µM | MCF7 > 100 µM | MDA-MB-435 > 100 µM | SK-MEL-28 > 100 µM

CCN(CC)CCSc1c2ccccc2nc2c(OC)ccc(OC)c12
inactive: ACHN 5.61 µM | SNB-19 43.6 µM | OVCAR-5 29.9 µM | 786-0 4.13 µM | OVCAR-4 10.7 µM | KM12 5.79 µM | NCI-H460 10.8 µM | SF-295 33.4 µM | SK-OV-3 36 µM | HT-29 4.59 µM | HOP-62 31.8 µM | K562 2.94 µM | SK-MEL-28 2.94 µM

C=CC(C)(C)[C@@]12CC3C(=O)N[C@@H](Cc4ccccc4)C(=O)N3[C@@H]1N(C(C)=O)c1ccccc12 (stereo partly specified)
inactive: ACHN 63.5 µM | OVCAR-3 48.6 µM | SNB-19 > 100 µM | OVCAR-5 > 100 µM | 786-0 > 100 µM | OVCAR-4 31.8 µM | KM12 77.8 µM | NCI-H460 48.8 µM | SF-295 97.3 µM | SK-OV-3 > 100 µM | HT-29 62.2 µM | HOP-62 > 100 µM | K562 49.3 µM | SK-MEL-2 > 100 µM | SK-MEL-28 > 100 µM

CC(C)(C)C(=O)Nc1cccc2oc(-c3ccccc3)cc12
inactive: ACHN > 100 µM | OVCAR-3 > 100 µM | SNB-19 > 100 µM | 786-0 > 100 µM | OVCAR-4 > 100 µM | KM12 > 100 µM | NCI-H460 > 100 µM | SF-295 > 100 µM | SK-OV-3 > 100 µM | HT-29 > 100 µM | HOP-62 > 100 µM | K562 > 100 µM | SK-MEL-2 > 100 µM | SK-MEL-28 > 100 µM
